Experimental data from ChEMBL document CHEMBL3885881, “DrugMatrix”.

Organism: Rattus norvegicus
Experiment: DrugMatrix - Regimen: Daily Repeat
Format: toxicity, organism-based, Sprague-Dawley
Parameters: regimen Daily Repeat, gender Male, age 6-8 weeks
Conditions: in vivo, po, route oral GAVAGE, vehicle .5 % CMC; for BASOPHIL / EOSINOPHIL / ERYTHROCYTE COUNT / HEMATOCRIT / HEMOGLOBIN / LEUKOCYTE COUNT / LYMPHOCYTE / MEAN CORPUSCULAR HEMOGLOBIN / MEAN CORPUSCULAR HEMOGLOBIN CONCENTRATION / MEAN CORPUSCULAR VOLUME / MONOCYTE / NEUTROPHIL / PLATELET COUNT: tissue Blood; for ALANINE AMINOTRANSFERASE / ALBUMIN / ALKALINE PHOSPHATASE / ASPARTATE AMINOTRANSFERASE / BLOOD UREA NITROGEN / CHLORIDE / CHOLESTEROL / CREATINE PHOSPHOKINASE / CREATININE / GLUCOSE / PHOSPHORUS / POTASSIUM / SODIUM / TOTAL BILIRUBIN / TOTAL PROTEIN: tissue Plasma
[1] = 0 mg/kg, 72 h, dose level Control, time 3 day
[2] = 0 mg/kg, 120 h, dose level Control, time 5 day
[3] = 8 mg/kg, 72 h, dose level Low, time 3 day
[4] = 8 mg/kg, 120 h, dose level Low, time 5 day
[5] = 24 mg/kg, 72 h, dose level High, time 3 day
[6] = 24 mg/kg, 120 h, dose level High, time 5 day

CCc1cccc2c3c([nH]c12)C(CC)(CC(=O)O)OCC3 (stereo not drawn) [ETODOLAC]
BASOPHIL [1]: 1.52%
EOSINOPHIL [1]: 0.98%
ERYTHROCYTE COUNT [1]: 6.96 x10E6/uL
HEMATOCRIT [1]: 44.65%
HEMOGLOBIN [1]: 13.62 G/DL
LEUKOCYTE COUNT [1]: 9.83 x10E3/uL
LYMPHOCYTE [1]: 76.48%
MEAN CORPUSCULAR HEMOGLOBIN [1]: 19.57 pg
MEAN CORPUSCULAR HEMOGLOBIN CONCENTRATION [1]: 30.47 G/DL
MEAN CORPUSCULAR VOLUME [1]: 64.22 fL
MONOCYTE [1]: 2.13%
NEUTROPHIL [1]: 18.6%
PLATELET COUNT [1]: 1217.17 x10E3/uL
ALANINE AMINOTRANSFERASE [1]: 41 u/L
ALBUMIN [1]: 3.77 G/DL
ALKALINE PHOSPHATASE [1]: 411.83 u/L
ASPARTATE AMINOTRANSFERASE [1]: 62.83 u/L
BLOOD UREA NITROGEN [1]: 15.17 mg/dL
CHLORIDE [1]: 104.33 MEQ/L
CHOLESTEROL [1]: 71.17 mg/dL
CREATINE PHOSPHOKINASE [1]: 123.5 u/L
CREATININE [1]: 0.55 mg/dL
GLUCOSE [1]: 182.67 mg/dL
PHOSPHORUS [1]: 11.23 mg/dL
POTASSIUM [1]: 7.03 MEQ/L
SODIUM [1]: 148 MEQ/L
TOTAL BILIRUBIN [1]: 0.57 mg/dL
TOTAL PROTEIN [1]: 6.85 G/DL
BASOPHIL [2]: 1.35%
EOSINOPHIL [2]: 0.43%
ERYTHROCYTE COUNT [2]: 6.96 x10E6/uL
HEMATOCRIT [2]: 44.35%
HEMOGLOBIN [2]: 13.98 G/DL
LEUKOCYTE COUNT [2]: 9.45 x10E3/uL
LYMPHOCYTE [2]: 80.83%
MEAN CORPUSCULAR HEMOGLOBIN [2]: 20.1 pg
MEAN CORPUSCULAR HEMOGLOBIN CONCENTRATION [2]: 31.52 G/DL
MEAN CORPUSCULAR VOLUME [2]: 63.72 fL
MONOCYTE [2]: 2.37%
NEUTROPHIL [2]: 14.05%
PLATELET COUNT [2]: 1298 x10E3/uL
ALANINE AMINOTRANSFERASE [2]: 42.17 u/L
ALBUMIN [2]: 3.77 G/DL
ALKALINE PHOSPHATASE [2]: 419 u/L
ASPARTATE AMINOTRANSFERASE [2]: 66.67 u/L
BLOOD UREA NITROGEN [2]: 16.67 mg/dL
CHLORIDE [2]: 103.17 MEQ/L
CHOLESTEROL [2]: 66.33 mg/dL
CREATINE PHOSPHOKINASE [2]: 148.33 u/L
CREATININE [2]: 0.58 mg/dL
GLUCOSE [2]: 196.83 mg/dL
PHOSPHORUS [2]: 11.8 mg/dL
POTASSIUM [2]: 6.47 MEQ/L
SODIUM [2]: 148.33 MEQ/L
TOTAL BILIRUBIN [2]: 0.53 mg/dL
TOTAL PROTEIN [2]: 6.77 G/DL
BASOPHIL [3]: 2.87%
EOSINOPHIL [3]: 0.5%
ERYTHROCYTE COUNT [3]: 7.29 x10E6/uL
HEMATOCRIT [3]: 46.3%
HEMOGLOBIN [3]: 14.43 G/DL
LEUKOCYTE COUNT [3]: 10.83 x10E3/uL
LYMPHOCYTE [3]: 74.43%
MEAN CORPUSCULAR HEMOGLOBIN [3]: 19.83 pg
MEAN CORPUSCULAR HEMOGLOBIN CONCENTRATION [3]: 31.17 G/DL
MEAN CORPUSCULAR VOLUME [3]: 63.57 fL
MONOCYTE [3]: 2.53%
NEUTROPHIL [3]: 19.13%
PLATELET COUNT [3]: 1601 x10E3/uL
ALANINE AMINOTRANSFERASE [3]: 44.33 u/L
ALBUMIN [3]: 3.8 G/DL
ALKALINE PHOSPHATASE [3]: 358.67 u/L
ASPARTATE AMINOTRANSFERASE [3]: 64 u/L
BLOOD UREA NITROGEN [3]: 12.33 mg/dL
CHLORIDE [3]: 102.67 MEQ/L
CHOLESTEROL [3]: 62 mg/dL
CREATINE PHOSPHOKINASE [3]: 129.67 u/L
CREATININE [3]: 0.57 mg/dL
GLUCOSE [3]: 182.33 mg/dL
PHOSPHORUS [3]: 13.07 mg/dL
POTASSIUM [3]: 7.23 MEQ/L
SODIUM [3]: 148.67 MEQ/L
TOTAL BILIRUBIN [3]: 0.37 mg/dL
TOTAL PROTEIN [3]: 6.7 G/DL
BASOPHIL [4]: 2.2%
EOSINOPHIL [4]: 0.17%
ERYTHROCYTE COUNT [4]: 7.21 x10E6/uL
HEMATOCRIT [4]: 45.2%
HEMOGLOBIN [4]: 14.13 G/DL
LEUKOCYTE COUNT [4]: 12.43 x10E3/uL
LYMPHOCYTE [4]: 78.07%
MEAN CORPUSCULAR HEMOGLOBIN [4]: 19.67 pg
MEAN CORPUSCULAR HEMOGLOBIN CONCENTRATION [4]: 31.37 G/DL
MEAN CORPUSCULAR VOLUME [4]: 62.7 fL
MONOCYTE [4]: 3.4%
NEUTROPHIL [4]: 15.23%
PLATELET COUNT [4]: 1492.67 x10E3/uL
ALANINE AMINOTRANSFERASE [4]: 41.67 u/L
ALBUMIN [4]: 3.8 G/DL
ALKALINE PHOSPHATASE [4]: 376 u/L
ASPARTATE AMINOTRANSFERASE [4]: 62.67 u/L
BLOOD UREA NITROGEN [4]: 16 mg/dL
CHLORIDE [4]: 102 MEQ/L
CHOLESTEROL [4]: 67.33 mg/dL
CREATINE PHOSPHOKINASE [4]: 145 u/L
CREATININE [4]: 0.6 mg/dL
GLUCOSE [4]: 181.33 mg/dL
PHOSPHORUS [4]: 12.37 mg/dL
POTASSIUM [4]: 6.73 MEQ/L
SODIUM [4]: 149 MEQ/L
TOTAL BILIRUBIN [4]: 0.33 mg/dL
TOTAL PROTEIN [4]: 6.57 G/DL
BASOPHIL [5]: 1.07%
EOSINOPHIL [5]: 0.27%
ERYTHROCYTE COUNT [5]: 5.61 x10E6/uL
HEMATOCRIT [5]: 34.27%
HEMOGLOBIN [5]: 10.67 G/DL
LEUKOCYTE COUNT [5]: 17.3 x10E3/uL
LYMPHOCYTE [5]: 66.33%
MEAN CORPUSCULAR HEMOGLOBIN [5]: 19 pg
MEAN CORPUSCULAR HEMOGLOBIN CONCENTRATION [5]: 31.13 G/DL
MEAN CORPUSCULAR VOLUME [5]: 61.13 fL
MONOCYTE [5]: 3.5%
NEUTROPHIL [5]: 27.87%
PLATELET COUNT [5]: 1221.33 x10E3/uL
ALANINE AMINOTRANSFERASE [5]: 31 u/L
ALBUMIN [5]: 2.83 G/DL
ALKALINE PHOSPHATASE [5]: 157 u/L
ASPARTATE AMINOTRANSFERASE [5]: 47.67 u/L
BLOOD UREA NITROGEN [5]: 12.67 mg/dL
CHLORIDE [5]: 105 MEQ/L
CHOLESTEROL [5]: 58.67 mg/dL
CREATINE PHOSPHOKINASE [5]: 142.33 u/L
CREATININE [5]: 0.47 mg/dL
GLUCOSE [5]: 168 mg/dL
PHOSPHORUS [5]: 11.97 mg/dL
POTASSIUM [5]: 6.27 MEQ/L
SODIUM [5]: 148.33 MEQ/L
TOTAL BILIRUBIN [5]: 0.2 mg/dL
TOTAL PROTEIN [5]: 5 G/DL
BASOPHIL [6]: 1.2%
EOSINOPHIL [6]: 0.25%
ERYTHROCYTE COUNT [6]: 4.38 x10E6/uL
HEMATOCRIT [6]: 26.95%
HEMOGLOBIN [6]: 8.35 G/DL
LEUKOCYTE COUNT [6]: 3.5 x10E3/uL
LYMPHOCYTE [6]: 64.7%
MEAN CORPUSCULAR HEMOGLOBIN [6]: 19.1 pg
MEAN CORPUSCULAR HEMOGLOBIN CONCENTRATION [6]: 31 G/DL
MEAN CORPUSCULAR VOLUME [6]: 61.65 fL
MONOCYTE [6]: 3.45%
NEUTROPHIL [6]: 24.5%
PLATELET COUNT [6]: 1541 x10E3/uL
ALANINE AMINOTRANSFERASE [6]: 27 u/L
ALBUMIN [6]: 2.6 G/DL
ALKALINE PHOSPHATASE [6]: 256 u/L
ASPARTATE AMINOTRANSFERASE [6]: 105 u/L
BLOOD UREA NITROGEN [6]: 64 mg/dL
CHLORIDE [6]: 103 MEQ/L
CHOLESTEROL [6]: 43 mg/dL
CREATINE PHOSPHOKINASE [6]: 183 u/L
CREATININE [6]: 0.6 mg/dL
GLUCOSE [6]: 107 mg/dL
PHOSPHORUS [6]: 19.1 mg/dL
POTASSIUM [6]: 9.9 MEQ/L
SODIUM [6]: 141 MEQ/L
TOTAL BILIRUBIN [6]: 0.3 mg/dL
TOTAL PROTEIN [6]: 5.3 G/DL
